Tests used:
[1] = biological target: T1, MMP14 (Homo sapiens, UniProt P50281); assay: Capture Compound Mass Spectrometry (CCMS) identification of the marimastat-binding protein (Example 5b); conditions: excess marimastat competitor
T1 construct: densely grown with adherent HT-1080 cells; endogenous in cells; host or cells: HT-1080 cells (adherent, not recombinant)
Experimental: In a repetition of the experiment described in example 5a, the magnetic particles after the wash buffer and water wash steps (end of 5a.ii) were additionally washed six times with 200 μl 80% acetonitrile and once with 200 μl ultrapure water. The proteins captured on the particles were digested by addition of 9 μl 50 mmol/l ammonium bicarbonate and 1 μl 0.5 mg/ml trypsin (Sequencing Grade, Roche, ProdNo. 11047841001) in 1 mmol/l HCl. The particles were kept in suspension in this solution by shaking (2000 rpm) at 37° C. over night. After magnetically separating the particles, the supernatant was evaporated and the contained tryptic peptides were analyzed by nanoLC-MS/MS after dissolving them in 0.1% formic acid (equipment: Easy-nLC liquid chromatography system; Proxeon Biosystems A/S and LTQ Orbitrap Velos mass spectrometer; Thermo Scientific). The peptide and protein identification by automated sequence database search was performed on the one hand using the search algorithms SEQUEST (implemented in the Proteome Discoverer software 1.2.0.208, Thermo Scientific) and X!Tandem (The Global Proteome Machine Organization; version 2007.01.01.1, implementiert in the Scaffold software, version 3_00_03, Proteome Software Inc.) or on the other hand using MaxQuant (version 1.1.1.25, Cox, J. and Mann, M. (2008) Nat Biotechnol 26, 1367-72.) for label-free quantification of proteins. […]

[2] = tested on: HT-1080 cells; assay: Method 2: cell tagging with capture compound first, then streptavidin magnetic particles (Example 2b); assay type: cell-based, human; conditions: culture "con", free marimastat competitor added first
Experimental: Cell culture supernatant of two cell cultures of adherent fibrosarcoma cells of cell line HT-1080 was prepared as described above (example 2a).
The cultures were spiked with 400 μl cell culture supernatant each. “Ver” received 20 μl water, control “con” received 20 μl 10 mM free marimastat (competitor), both cultures were swayed for mixing and incubated 3 min at room temperature, carefully keeping the cell layer wet at all times. During this step, the free marimastat in culture “con” binds to marimastat-binding proteins or protein complexes on the surface of cells and blocks their binding sites, preventing marimastat capture compounds from binding during the subsequent step. 2 μl 100 μmol/l marimastat capture compound was added to each culture, shaken gently and incubated 5 min at room temperature. Binding of the marimastat capture compound only happens on the cell surface proteins in culture “ver” (which are not blocked). The supernatant was removed from each, both cultures were washed with 400 μl fresh cell culture supernatant twice to remove excess marimastat capture compound, and 400 μl fresh cell culture supernatant was added each. 1 μl of 10 mg/ml strepatavidin coated magnetic particles of 1 μm diameter (Dynabeads MyOne Steptavidin C1 (Dynal)), was added to each culture, homogenized by swaying and incubated 30 min at room temperature. […]

[3] = biological target: T2, marimastat-binding protein on the cell surface of HT-1080 cells (Homo sapiens, UniProt P50281); assay: Photochemical crosslink on cell surface, detection by streptavidin-horseradish peroxidase blot (Example 5a); conditions: sample "C": 0.5 mmol/l marimastat competitor, UV irradiated
T2 construct: densely grown with adherent HT-1080 cells; endogenous in cells; host or cells: HT-1080 cells (adherent, not recombinant)
Experimental: Five times three sterile petri dishes with 3.5 cm diameter were densely grown with adherent HT-1080 cells (passage 10, see example 2 for medium and conditions). The cell culture supernatant was collected and 400 μl of this supernatant was again applied onto the cells such that the cells were covered with a layer of cell culture supernatant. Three of the petri dishes were labeled, respectively, “A”, “C”, “PD”, “PDC” and “noCC”. To “A”, “PD” and “noCC” were added 20 μl ultrapure water, respectively. To “C” and “PDC” were added 20 μl 10 mmol/l marimastat, respectively (0.5 mmol/l final concentration) and homogenized by swaying. To “A”, “C”, “PD” and “PDC” were added 2 μl 100 μmol/l marimastat capture compound (0.5 μmol/l final concentration) and homogenized by swaying. After a 2 min incubation, cells with supernatant of petri dishes “A”, “C” and “noCC” (open lids) were irradiated for 1 min with UV light (λmax=310 nm, caproBox, caprotec Bioanalytics GmbH, Berlin). Cells with supernatant of petri dishes “PD” and “PDC” were not irradiated but otherwise treated the same (incubated in caproBox for 1 min without irradiation). The supernatant was collected and discarded (in a repetition experiment, this supernatant was also analyzed as described in example 5b). […]

[4] = tested on: HT-1080 cells; assay: Immobilization of cells from suspension on streptavidin coated multititer plates (Example 4); assay type: cell-based, human; conditions: mean of three samples
Experimental: HT-1080 cells (see above) were treated for 30 min in cell culture medium with calcein AM to fluorescently stain the cytosol and were provided in suspension (obtained by scraping off the adherent cells using a cell spatula) at a final concentration of ˜0.5*10^6/ml in culture medium. White blood cells (WBC) freshly obtained from a donor by lysis of erythrocytes and subsequent washing and resuspension were adjusted to a final concentration of ˜5*10^6/ml in phosphate buffered saline (PBS). 12-well multititer plates (streptavidin coated) were used for cell immobilization.
Samples of HT-1080 cells to be used as controls were treated with adjusted to 50 μmol/l free marimastat in medium by adding a stock solution (10 mM) of the competitor (samples marked “C”). Non-competitor verum samples are marked “A”.
Samples treated with marimastat capture compound in solution were adjusted to 0.5 μmol/l capture compound in medium from 20 μmol/l stock solution (samples labelled “ind”), or attached to the capture compound-treated streptavidin-coated surface (samples labelled “dir”).
For determining the influence on binding by activating the reactivity function by UV irradiation (samples labelled “UV”) in samples for indirect binding (first capture compound attaching to cells, then cells binding to surface), cells were irradiated for 1 min by a near UV laboratory source (λmax=310 nm, caproBox, caprotec bioanalytics GmbH, Berlin) in an uncoated well (or not for samples without UV irradiation), collected, spun down, washed, and transferred to a streptavidin-coated well (incubation time˜3 h). Samples for direct binding were brought into capture compound coated wells (prepared as described below) directly (incubation time˜3 h) and UV-irradiated therein (or not for samples without UV irradiation). For loading the streptavidin-coated microtiter plates with capture compound, the wells were rinsed repeatedly for 10 min with 10 μl of 20 μM marimastat capture compound per well in 200 μl PBS at room temperature; the supernatant was discarded and the wells were washed with PBS.
The medium over the cells bound to the surface was mainly removed (a minimum rest was left to cover the cells and not let the cells dry) and all wells were washed carefully two times with 1 ml medium. HT-1080 cells were counted by their calcein AM fluorescence using a Cellavista system. Values below are adjusted for HT-1080 cell numbers delivered onto the well (1.9*10^5).

[5] = tested on: HT-1080 cells; assay: Specific magnetic isolation of selectively tagged cells (Example 3); assay type: cell-based, human; conditions: control "con", free marimastat competitor
Experimental: After tagging and washing (method 2, see example 2b) the supernatant was removed from cultures “ver” and “con” and the cultures were treated with 200 μl non-enzymatic cell dissociation solution (Sigma), followed by 10 min incubation at room temperature. […] The cells were moved to two 200 μl PCR vials labelled “ver” and “con”, respectively.

[6] = tested on: HT-1080 cells; assay: Marimastat-specific tagging of adherent cells by capture compound coated magnetic particles (Example 2a); assay type: cell-based, human; conditions: culture "con", with free marimastat competitor; light microscopy
Description: Cell culture supernatant (10% heat inactivated fetal calf serum (PAA Laboratories GmbH), 1× Penicillin/Streptomycin (PAA) in DMEM (Dulbecco's Modified Eagle Medium) High Glucose (4.5 g/l) with stable glutamin (PAA)) was removed from two cell cultures of adherent fibrosarcoma cells (cell line HT-1080 (ACC 315 Deutsche Sammlung von Mikroorganismen and Zellkulturen DSMZ Braunschweig; densely grown; 3.5 cm petri dish; passage 9) and added to further cell culture supernatant from a larger culture. The petri dish was closed to avoid drying of the cells.
20 μl 10 mg/ml strepatavidin coated magnetic particles of 1 μm diameter (Dynabeads MyOne Steptavidin C1 (Dynal)) (streptavidin magnetic particles or particles in the following) were mixed with 10 μl 100 μM marimastat capture compound V (caprotec bioanalytics GmbH)
[drawing 4] and incubated 10 min at room temperature. The particles were collected at the inner vial wall by applying a strong magnet (caproMag, caprotec bioanalytics GmbH, containing a 150×9×7 mm neodymium magnet (NdFeB) of quality N52 (1.43 Tesla)), and the supernatant was discarded. The particles were resuspended in 500 μl HT-1080 cell culture supernatant, collected magnetically anew and resuspended in 200 μl water, giving a 1 mg/ml marimastat capture compound-particle suspension. […]

## CNC(=O)[C@@H](NC(=O)[C@H](CC(C)C)[C@H](O)C(=O)NO)C(C)(C)C [marimastat]
[1]
  MMP14 capture in presence of competitor (MaxQuant analysis): completely suppressed
[2]
  particle tagging of cells after washing: little or no particles are visible
[3]
  blot signal of protein photochemically crosslinked with the capture compound: the signal is absent
[4]; C dir (no UV): direct binding, marimastat excess competitor, no UV
  Percent input cells recovered: 14.5 (standard deviation of Percent
[4]; C dir UV: direct binding, marimastat excess competitor, UV activated
  Percent input cells recovered: 7.9 (standard deviation of Percent
[4]; C ind (no UV): indirect binding, marimastat excess competitor, no UV
  Percent input cells recovered: 1.1 (standard deviation of Percent
[4]; C ind UV: indirect binding, 50 μmol/l free marimastat competitor, UV activated
  Percent input cells recovered: 0.7 (standard deviation of Percent
[5]
  retention of tagged cells at vial wall by magnet: mostly sunk to the bottom of the vial
[6]
  tagging of cells on their surface by particles after washing: not marked, or to only very little extent

From US9550978B2, “Isolation and functional identification of cells” (CAPROTEC BIOANALYTICS GMBH, priority 2010, dated 2017)
